In patent US20110092476A1, “Bicycloheteroaryl compounds as P2X7 modulators and uses thereof” (Renovis, Inc., priority 2006, published 2011):
Values after ≈ are worked out from the molar mass of the structure shown. Read-outs that look alike come from different tables or passages of the source.

Experiments:
[1] = target: T1, P2X7 receptor (Homo sapiens, UniProt Q99572); test: IL-1β release assay in differentiated THP-1 cells stimulated with BzATP (Example 9); type: cell-based
T1 construct: host or cells: THP-1 cells differentiated with LPS and IFN-γ
T1 sequence (Q99572 1-595): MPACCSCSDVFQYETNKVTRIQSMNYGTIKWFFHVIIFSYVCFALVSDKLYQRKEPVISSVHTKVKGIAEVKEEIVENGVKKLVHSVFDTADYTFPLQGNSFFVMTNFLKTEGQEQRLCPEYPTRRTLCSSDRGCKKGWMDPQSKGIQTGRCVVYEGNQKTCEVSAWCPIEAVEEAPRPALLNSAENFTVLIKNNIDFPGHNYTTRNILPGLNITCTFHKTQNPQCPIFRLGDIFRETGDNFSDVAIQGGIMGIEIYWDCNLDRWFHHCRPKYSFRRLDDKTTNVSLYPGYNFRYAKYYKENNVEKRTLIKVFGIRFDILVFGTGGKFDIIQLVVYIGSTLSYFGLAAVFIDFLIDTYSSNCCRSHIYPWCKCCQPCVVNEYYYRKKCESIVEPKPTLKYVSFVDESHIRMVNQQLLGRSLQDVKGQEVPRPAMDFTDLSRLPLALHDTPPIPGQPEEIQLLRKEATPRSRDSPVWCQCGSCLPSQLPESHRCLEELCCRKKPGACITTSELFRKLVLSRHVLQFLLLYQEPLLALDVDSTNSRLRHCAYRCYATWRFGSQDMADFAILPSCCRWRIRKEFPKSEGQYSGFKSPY
Summary of the method: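 THP-1 cells differentiated 16 h with 100 ng/mL LPS and 100 ng/mL IFN-γ, primed 2 h with fresh LPS, pretreated 30 min with compound, then stimulated 45 min with 250 uM BzATP (final). Supernatant IL-1β measured by ELISA; background-adjusted percent inhibition fitted to a four-parameter logistic for IC50.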

[2] = Pharmacokinetic evaluation following intravenous and oral administration in rats (oral bioavailability); type: in vivo, rat; details: male Sprague-Dawley rats, PO 1 to 5 mg/kg vs IV 1 mg/kg, AUCinf dose-normalized
Protocol: Male Sprague-Dawley rats are acclimatized for at least 24 hours prior to experiment initiation. During acclimation period, all animals receive food and water ad libitum. However, food but not water is removed from the animal's cages at least 12 hours before initiation of the experiment. During the first 3 hours of experimentation, the animals receive only water ad libitum. At least three animals each are tested for intravenous and oral dosage. For intravenous formulation, compounds were dissolved (0.25 to 1 mg/mL) in a mixture of 3% dimethyl sulfoxide, 40% PEG 400 and the rest percentage of 40% Captisol in water (w/v). The animals are weighed before dosing. The determined body weight is used to calculate the dose volume for each animal.
Dose volume (mL/kg)=1 mg/kg/formulation concentration (mg/mL)
In instances where the formulation concentrations were less than 0.5 mg/mL, the dosing volume is about 2 mL/kg.
PO rats are typically dosed through oral gavage following the same dose volume formula as IV to achieve a dose level of 1 to 5 mg/kg. […] About 250 uL of blood is obtained at each time point from the animal. Equal volumes of 0.9% normal saline are replaced to prevent dehydration. The whole blood samples are maintained on ice until centrifugation. Blood samples are then centrifuged at 14,000 rpm for 10 minutes at 4° C. and the upper plasma layer transferred into a clean vial and stored at −80° C. The resulting plasma samples are then analyzed by liquid chromatography-tandem mass spectrometry. Following the measurement of plasma samples and dosing solutions, plasma concentration-time curve is plotted. Plasma exposure is calculated as the area under the concentration-time curve extrapolated to time infinite (AUinf). The AUCinf is averaged and the oral bioavailability (% F) for individual animal is calculated as:
AUCinf (PO)/AUCinf (IV), normalized to their respective dose levels. The % F is reported as the mean % F of all animals dosed orally with the compound of the invention at the specified level (see Table 4 below).
For the purpose of Table 4, oral bioavailability of each compound is expressed as follows: […]

[3] = Determination of aqueous (kinetic) solubility; type: physicochemical; details: aqueous buffer, kinetic from dmso stock, buffer pH 7.4
Protocol: The mixture was vortexed for 1 hour and equilibrated overnight at room temperature. The mixture was filtered through a saturated filter and the filtrate was analyzed by LC/MS/MS.
For the purpose of Table 5, solubility of each compound is expressed as follows: […]

[4] = Half-life in human liver microsomes (HLM); details: pH 7.4
Protocol: (§1) Test compounds (1 μM) are incubated with 3.3 mM MgCl2 and 0.78 mg/mL HLM (HL101) in 100 mM potassium phosphate buffer (pH 7.4) at 37° C. on the 96-deep well plate. The reaction mixture is split into two groups, a non-P450 and a P450 group. NADPH is only added to the reaction mixture of the P450 group. An aliquot of samples of P450 group is collected at 0, 10, 30, and 60 min time point, where 0 min time point indicated the time when NADPH is added into the reaction mixture of P450 group. […] Collected aliquots are extracted with acetonitrile solution containing an internal standard. […] The compound concentration in supernatant is measured by LC/MS/MS system.
(§2) The half-life value is obtained by plotting the natural logarithm of the peak area ratio of compounds/internal standard versus time. The slope of the line of best fit through the points yields the rate of metabolism (k). This is converted to a half-life value using following equations:

[5] = in vitro; details: human, microsomes, pH 7.4
Protocol: as §1, §2

[6] = THP-1, read-out: IL-1β % Inhib. @ 0.3 or 0.1 uM
[7] = 0.3 μM compound, differentiated THP-1 cells, BzATP 250 uM, "+" symbols, read-out: IL-1β % Inhib. @ 0.3 or 0.1 uM

Structure (SMILES)	Oral Bioavailability F (%) [2]	solubility [3] [µM]	half-life at 1 μM [4] [h]	inhibition at 0.3 µM [1, 7] [%]	inhibition at 0.3 µM ([1]; 0.3 μM compound (symbols +), differentiated THP-1 cells, BzATP 250 uM, read-out: IL-1β % Inhib. @ 0.3 or 0.1 uM) [%]	inhibition at 0.3 µM [1, 6] [%]	IC50 ([1]; THP-1 cells, BzATP 250 uM, IL-1β by ELISA) [nM]	half-life [5] [h]
C[C@H](CO)n1ccc2c(NC(=O)Cc3ccc(F)c(C(F)(F)F)c3)c(Cl)ccc2c1=O [Compound 377, N-[6-Chloro-2-((R)-2-hydroxy-1-methyl-ethyl)-1-oxo-1,2-dihydro-isoquinolin-5-yl]-2-(4-fluoro-3-trifluoromethyl-phenyl)-acetamide]	+++ (51-75% F)	> 75	1.01			> 76		
C[C@H](CO)n1ccc2c(NC(=O)Cc3cccc(C(F)(F)F)c3F)cccc2c1=O [Compound 324]	++ (26-50% F)	> 75	0.7	> 76				
C[C@H](C(=O)Nc1cccc2c(=O)n([C@H](C)C(N)=O)ccc12)c1ccc(Cl)cc1 [Compound 263]	++ (26-50% F)	> 75	2.31	> 76				
C[C@H](C(N)=O)n1ccc2c(NC(=O)[C@H](C)c3ccc(Cl)c(Cl)c3)cccc2c1=O [Compound 269]	++ (26-50% F)	26 to 50 (≈ 11.2 to 21.6 µg/mL)	0.93	> 76				
O=C(CCc1cc(C(F)(F)F)ccc1C(F)(F)F)Nc1cccc2c(=O)n(CCO)ccc12 [Compound 62]	+ (0-25% F)	< 25	0.37		> 76			
Cc1ccc2c(=O)n([C@H](C)CO)ccc2c1NC(=O)Cc1ccc(C(F)(F)F)c(F)c1 [Compound 393, N-[6-Methyl-2-((R)-2-hydroxy-1-methyl-ethyl)-1-oxo-1,2-dihydro-isoquinolin-5-yl]-2-(3-fluoro-4-trifluoromethyl-phenyl)-acetamide]	+++ (51-75% F)	> 75				> 76	5.38	1.45
O=C(Cc1ccc(C(F)(F)F)c(F)c1)Nc1c(Cl)ccc2c(=O)n(CCO)ccc12 [Compound 383]	++++ (>75% F)	< 25		> 76				3.65

The next lines start with results.

Oral Bioavailability F (%) [2]	solubility [3] [µM]	half-life at 1 μM [4] [h]	inhibition at 0.3 µM [1, 7] [%]	inhibition at 0.3 µM ([1]; 0.3 μM compound (symbols +), differentiated THP-1 cells, BzATP 250 uM, read-out: IL-1β % Inhib. @ 0.3 or 0.1 uM) [%]	Structure (SMILES)	inhibition at 0.3 µM [1, 6] [%]	IC50 ([1]; THP-1 cells, BzATP 250 uM, IL-1β by ELISA) [nM]	half-life [5] [h]
++ (26-50% F)	> 75	0.9	> 76		C[C@H](CO)n1ccc2c(NC(=O)Cc3ccc(Cl)c(Cl)c3)c(Cl)ccc2c1=O [Compound 376]			
++++ (>75% F)	< 25	1.16	> 76		C[C@H](CO)n1ccc2c(NC(=O)Cc3ccc(C(F)(F)F)cc3F)cccc2c1=O [Compound 359]			
+++ (51-75% F)	> 75	0.93	> 76		C[C@H](CO)n1ccc2c(NC(=O)Cc3ccc(F)c(C(F)(F)F)c3)cccc2c1=O [Compound 339]			
++++ (>75% F)	> 75	1.63	> 76		C[C@H](CO)n1ccc2c(NC(=O)Cc3ccc(C(F)(F)F)c(F)c3)c(Cl)ccc2c1=O [Compound 375, N-[6-Chloro-2-((R)-2-hydroxy-1-methyl-ethyl)-1-oxo-1,2-dihydro-isoquinolin-5-yl]-2-(3-fluoro-4-trifluoromethyl-phenyl)-acetamide]			
